For data set [1], the system named is microglia. As to the kind of experiment: Flow cytometry phagocytosis assay with strepavidin or biotin beads. As to conditions: 30 minutes pretreatment, beads 90 minutes. The data set is classed as cell-based. How it is done: Phagocytosis assay: 6 μm strepavidin beads or 5.2 μm biotin beads were added to microglia for 90 minutes. Cells were moved to ice and stained with either a biotin or strepavidin labeled antibodies to identify un-ingested beads. To confirm the ability to identify intra-verses extracellular bound beads by flow cytometry microglia were treated with Cytochalasin D for 30 minutes prior to the addition of beads.

Data set [2] relates to LRRK2. The data set is described as follows: LRRK2 mRNA, protein and kinase activity in INF-γ treated microglia. The data set is classed as cell-based. As to conditions: INF-γ treatment of microglia. The text has this:
FIG. 16: INF-γ treatment of microglia induced LRRK2 mRNA transcript levels and protein levels by about 2 fold.
We have tested the effect of LRRK2 kinase inhibitors on phagocytosis in cells transformed with LRRK2 G2019S. We have a number of compounds known to inhibit LRRK2 kinase activity. Some of these compounds have enantiomers that are known inhibitors of either cFMS or PLK2 inhibitors but have minimal effect on LRRK2. Pairs of enantiomers one of which is known inhibitor of LRRK2 and one of which inhibits cFMS or PLK2 without substantially effect on LRRK2 can be used to measure LRRK2-specific effects on phagocytosis.

The test system of data set [3] is microglia. The data set is described as follows: Phagocytosis of 10 micron beads by INFγ treated microglia, with or without LRRK2 inhibitors. The class given is cell-based. As to conditions: INFγ 24 hr.
Another data set has as its system wild type microglia. The data set is described as follows: Phagocytosis after INFγ overnight, wild type littermate microglia. The data set is classed as cell-based, mouse. As to conditions: beads 90 minutes. The text has this: (§1) To test a more physiologic system in which altered activation of LRRK2 and elevated synuclein may occur, we tested the effect of INFγ treatment on phagocytosis in wild type and synuclein-overexpressing microglia. As described above INFγ treatment naturally raises LRRK2 levels as well as increased LRRK2 phosphorylation and activity. Using our line 3 heterozygote X heterozygote crosses (generating homozygous alpha synuclein mice) in which, by culturing each pup separately wild type and synuclein overexpressing littermate cultures are generated. Microglia isolated from the various pups were exposed to INFγ overnight and which point […] beads were added for 90 minutes and phagocytosis was assessed while we were still blinded to the genotype of each culture. […] The ability of the environment to impact these pathways may help explain the incomplete penetrance and onset of Parkinson's symptoms observed with various familial forms of PD.

For data set [4], the system named is synuclein overexpressing cells. As to the kind of experiment: Phagocytosis after INFγ overnight, synuclein overexpressing microglia. The class given is cell-based, mouse. As to conditions: beads 90 minutes.
Excerpt: as §1

For data set [5], the system named is LRRK2. The data set is described as follows: LRRK2 phosphorylation in stimulated murine microglia (PT1967 P-LRRK2 antibody). The data set is classed as cell-based, mouse. Conditions: primary microglia stimulated for various times. How it is done:
Although neurons express LRRK2, this expression appears to be low relative to that of B-cells and macrophages. […] For example, murine microglia were stimulated with MCSF for various times or […] beads for 30 minutes. LRRK2 phosphorylation was probed with PT1967 P-LRRK2 antibody.

The subject of another data set is H4 cells. As to the kind of experiment: Bead phagocytosis in H4 cells with tetracycline inducible synuclein transfected with Rab proteins. The data set is classed as cell-based, human. Conditions: synuclein overexpressing H4 cells (tetracycline 48 hours), 4 μM beads 90 minutes. How it is done: FIG. 11: Rabs proteins were transfected into a stable H4 cells containing a tetracycline inducible synuclein construct. Cells were treated or untreated with tetracycline for 48 hours and then fed 4 μM beads for 90 minutes and a phagocytic index calculated.
In quantifying phagocytosis in cells overexpressing synuclein we noticed that synuclein translocates to the phagocytic cup and localized with regions of active actin rearrangement. Under resting conditions synuclein resides in the cytoplasm and following 45 and 90 minutes of bead addition synuclein translocates to sites of actin polymerization and bead contact. SNARE complexes are composed of three components, a SNAP, a syntaxin, and a VAMP protein. These three proteins come together and prime vesicles for fusion with the plasma membrane. On fusion vesicles release their contents and SNARE complexes are disassembled by two adaptor proteins, NSF and α-SNAP. Some members from these dissociated complexes recycle back to the cytoplasm via recycling endosomes and can be used to prime subsequent fusion events. All three protein members of the SNARE complex are alpha helices and on assembly form an energy favorable, very unique SDS stable complex. Although these complexes resist SDS dissociation they will dissociate following boiling. Therefore one SNARE complexes can be flowed as SDS stable complexes in boiled and unboiled lysates. We hypothesized that defective vesicle mobilization may be associated with or due to altered SNARE complex formation of SNARE complex. H4 cells transfected with synuclein were fed beads for 15, 45, or 90 minutes, samples were lysed and run on western formation. […] Alterations in SNARE complexes were also observed in microglia isolated from synuclein genomic mice (data not shown). To elucidate how synuclein alters vesicle trafficking and SNARE complex formation/function we assessed interaction of synuclein with components of the SNARE family. […] To test the possibility that molecules which facilitate vesicle movement could overcome the ability of elevated levels of synuclein to block phagocytosis, a stable H4 cell line overexpressing synuclein was transfected with various Rab proteins. We verified that the Rab proteins were overexpressed and phagocytosis was assessed in wild type and synuclein over expressing cells.

Consider `C=C1[C@@H](C)[C@H]2[C@H](Cc3ccccc3)NC(=O)[C@]23[C@H](OC(C)=O)/C=C/[C@@](C)(O)C(=O)[C@@H](C)C/C=C/[C@H]3[C@@H]1O` [Cytochalasin D], for which, in the data set with microglia [1], the “phagocytosis of 5 and 6 micron beads” value is recorded as “blocked this phagocytosis”.
“INFγ: interferon gamma, described as agonist of LRRK2”: the “induction of LRRK2 mRNA transcript levels” value in the data set with LRRK2 [2] is “about 2 fold”. For the same molecule, the “induction of LRRK2 protein levels” value in the data set on LRRK2 [2] is “about 2 fold”. Also, the “phagocytosis of 10 micron beads” value in the data set on microglia [3] was “increased phagocytosis”. Moreover, the phagocytosis entry is on record as “enhanced phagocytosis” in the data set with wild type microglia and “even further reduction in phagocytosis” in data set [4].

B1: INFγ: interferon gamma, described as agonist of LRRK2 (protein, UniProt P01579 24-161, looked up)
Interferon gamma: QDPYVKEAENLKKYFNAGHSDVADNGTLFLGILKNWKEESDRKIMQSQIVSFYFKLFKNFKDDQSIQKSVETIKEDMNVKFFNSNKKKRDDFEKLTNYSVTDLNVQRKAIHELIQVMAELSPAAKTGKRKRSQMLFRG
In the case of B1, the “LRRK2 kinase activity (LRRK2 phosphorylation, LRRK-tide phosphorylation assay)” value in the data set with LRRK2 [2] is on record as “apparent increase in LRRK2 kinase activity”.

B2: MCSF: stimulus that engages the actin cytoskeleton, used on murine microglia (protein, UniProt P07141 33-552, looked up)
Macrophage colony-stimulating …: KEVSEHCSHMIGNGHLKVLQQLIDSQMETSCQIAFEFVDQEQLDDPVCYLKKAFFLVQDIIDETMRFKDNTPNANATERLQELSNNLNSCFTKDYEEQNKACVRTFHETPLQLLEKIKNFFNETKNLLEKDWNIFTKNCNNSFAKCSSRDVVTKPDCNCLYPKATPSSDPASASPHQPPAPSMAPLAGLAWDDSQRTEGSSLLPSELPLRIEDPGSAKQRPPRSTCQTLESTEQPNHGDRLTEDSQPHPSAGGPVPGVEDILESSLGTNWVLEEASGEASEGFLTQEAKFSPSTPVGGSIQAETDRPRALSASPFPKSTEDQKPVDITDRPLTEVNPMRPIGQTQNNTPEKTDGTSTLREDHQEPGSPHIATPNPQRVSNSATPVAQLLLPKSHSWGIVLPLGELEGKRSTRDRRSPAELEGGSASEGAARPVARFNSIPLTDTGHVEQHEGSSDPQIPESVFHLLVPGIILVLLTVGGLLFYKWKWRSHRDPQTLDSSVGRPEDSSLTQDEDRQVELPV
Take B2: the LRRK2 phosphorylation entry in the data set on LRRK2 [5] is recorded as “can be enhanced”.

B3: Rab11b: Rab protein (Swiss Prot Q15907) overexpressed by transfection in H4 cells (protein, UniProt Q15907 2-215, looked up)
Ras-related protein Rab-11B: GTRDDEYDYLFKVVLIGDSGVGKSNLLSRFTRNEFNLESKSTIGVEFATRSIQVDGKTIKAQIWDTAGQERYRAITSAYYRGAVGALLVYDIAKHLTYENVERWLKELRDHADSNIVIMLVGNKSDLRHLRAVPTDEARAFAEKNNLSFIETSALDSTNVEEAFKNILTEIYRIVSQKQIADRAAHDESPGNNVVDISVPPTTDGQKPNKLQCC
Consider B3, for which the entries for the “phagocytosis (phagocytic index)” value with H4 cells and in the data set on H4 cells (listed as Rab11B) were “rescued synuclein modulation of phagocytosis” and “restored phagocytosis”, respectively.

B4: Rab3b: Rab protein (Swiss Prot P20337) overexpressed by transfection in H4 cells (protein, UniProt P20337 2-219, looked up)
Ras-related protein Rab-3B: ASVTDGKTGVKDASDQNFDYMFKLLIIGNSSVGKTSFLFRYADDTFTPAFVSTVGIDFKVKTVYRHEKRVKLQIWDTAGQERYRTITTAYYRGAMGFILMYDITNEESFNAVQDWATQIKTYSWDNAQVILVGNKCDMEEERVVPTEKGQLLAEQLGFDFFEASAKENISVRQAFERLVDAICDKMSDSLDTDPSMLGSSKNTRLSDTPPLLQQNCSC
In the case of B4, the “phagocytosis (phagocytic index)” value with H4 cells is reported as “rescued synuclein modulation of phagocytosis”; in the data set with H4 cells (listed as Rab3B), “restored phagocytosis”.

The values above are taken from patent US20140186294A1, “PHAGOCYTIC ACTIVITY AS A MARKER OF SYNUCLEINOPATHIC DISEASE” (ELAN PHARMACEUTICALS, INC., priority 2010, published 2014).
